Measurements from US20100204156A1, “USE OF THYMOPENTIN AS A THERAPEUTIC AGENT” (priority 2007, published 2010).
Residues, ends and D or L forms follow the SMILES beside them.

Columns and labels:
CEM-SS cells = experiment: Cell viability / cytotoxicity (MTS) in the HIV-1 assay; conditions: peptide 10 micrograms per ml, MTS
HIV-1IIIB = experiment: HIV-1 antiviral assay (CPE reduction, MTS) in CEM-SS cells; assay type: cell-based; conditions: peptide 10 micrograms per ml, 6 days post-infection
[1] = test system: Human Peripheral Blood Mononuclear Cells (PBMC); experiment: T cell proliferation assay (PHA, 3H-thymidine); assay type: cell-based; conditions: test peptide 10 micrograms per ml
Protocol: (§1) Human Peripheral Blood Mononuclear Cells (PBMC) were obtained from normal human donors. The T cell proliferation was induced by stimulation of the cells with the T cell mitogen phytohemagglutinin (PHA), either in the absence (positive proliferation control), or in the presence of test peptide—10 micrograms per ml—to examine their effects on the T cell proliferating response. 10^5/well PBMC were plated in 96-well microtiter plates and assayed in duplicate with the peptide. Cell cultures were incubated at 37° C. for 3 days in a 5% CO2 incubator and were thereafter pulsed with 1 microCi/well ^3H-thymidine for additional 12 hours of culture. At the end of incubation time, the plates were harvested and the cells counted by liquid scintillation for the incorporation of ^3H-thymidine as a measure of T cell proliferation.

Pseudomonas aeruginosa = Pseudomonas aeruginosa assay; assay type: cell-based; conditions: Pseudomonas aeruginosa growth; peptide 10 micrograms per ml; read visually
Human A549 cells [2] = experiment: Apoptosis induction assay (Annexin-5); assay type: cell-based; conditions: 24 hours, test peptide 10 micrograms per ml
Description: Human A549 cells (carcinomic human alveolar basal epithelial cells) were utilized in the experiments employing the Annexin-5 apoptosis assay. Annexin-5 is a member of a highly conserved protein family that binds acidic phospholipids in a calcium-dependent manner. […] Phosphatidylserine is translocated from the inner side of the plasma membrane to the outer layer when cells undergo death by apoptosis or cell necrosis and serves as a signal by which cell destined for death are recognized by phagocytes. Test peptide—10 micrograms per ml—were exposed for 24 hours to the A549 cells before they were analyzed for signs of apoptosis.

[3] = test system: macrophages differentiated from Human PBMC; experiment: TNF alpha production assay (LPS-stimulated macrophages, ELISA); assay type: cell-based; conditions: test peptide 10 micrograms per ml, lipopolysaccharide 200 ng/ml, overnight
Protocol: Human Peripheral Blood Mononuclear Cells (PBMC) were obtained from normal human donors. The macrophages were prepared by adherence of PBMC to the plastic wells of the plates. […] Not stimulated macrophages served as negative background control. After overnight incubation, supernatants from the control and LPS-stimulated cultures were harvested and assayed for TNF alpha production employing a TNF alpha specific ELISA.

[4] = test system: hepatitis B virus (HBV) ayw strain; experiment: HBV assay: secreted HBV DNA by real-time TaqMan PCR in HepG2-2.2.15 cells; assay type: cell-based; conditions: test peptide 10 micrograms per ml; six days; HBV DNA in supernatant
Description: HepG2-2.2.15 is a stable cell line containing the hepatitis B virus (HBV) ayw strain genome (ATCC Cat. No. CRL-11997). Antiviral compounds blocking any late step of viral replication such as transcription, translation, pregenome encapsidation, reverse transcription, particle assembly and release can be identified and characterized using this cell line. In this assay, an active compound will reduce the production of secreted HBV from cells, measured by utilizing real time quantitative PCR (TaqMan) assay to directly and accurately measure HBV DNA copies.
HepG2-2.2.15 cells were plated in 96-well microtiter plates. After 16-24 hours the confluent monolayer of HepG2-2.2.15 cells was washed and the medium was replaced with complete medium containing test peptide—10 micrograms per ml—in duplicate. […] Six days following the initial administration of the peptide, the cell culture supernatants was collected, treated with pronase and DNAse and then used in a real-time quantitative TaqMan PCR assay. The PCR-amplified HBV DNA was detected in real-time by monitoring increases in fluorescence signals that result from the exonucleolytic degradation of a quenched fluorescence probe molecule that hybridizes to the amplified HBV DNA. […] Antiviral activity was calculated from the reduction in HBV DNA levels (% virus control). […]

MRSA = experiment: Methicillin Resistant Staphylococcus Aureus (MRSA) assay; assay type: cell-based; conditions: MRSA growth; peptide 10 micrograms per ml; read visually
[5] = test system: spleen cells of Ovalbumin-immunized Balb/c mice; experiment: Th1/Th2 cytokine profiling assay (Mouse Th1/Th2 Cytokine CBA Kit); assay type: cell-based; conditions: test peptide 10 micrograms per ml; Ovalbumin restimulation, 72 hours
Description: The Balb/c mice (originated in 1923, it is a popular strain and is used in many different research disciplines. Also classified as an inbred from the production of 20 or more successive brother-sister matings, the Balb/c mouse is albino and small in size) were immunized on Days 1, 15, and 29 with Ovalbumin (Ovalbumin is the main protein found in egg white, commonly used to stimulate an immunological reaction in test animals) in PBS (5 micrograms/injection). On day 50, spleens of the mice were harvested (3 weeks after last boost with Ovalbumin). […] Thereafter, additional Ovalbumin was added to the cells at 10 micrograms/ml for in vitro restimulation of the cells. 72 hours later, cell supernatants were harvested and assayed using the Becton Dickinson Mouse Th1/Th2 Cytokine CBA Kit. This kit can be used to measure Interleukin-2 (IL-2), Interleukin-4 (IL-4), Interleukin-5 (IL-5), Interferon-γ (IFN-γ), and Tumor Necrosis Factor-α (TNF-α) protein levels in a single sample. The kit performance has been optimized for analysis of physiologically relevant concentrations ([…] levels) of specific cytokine proteins in tissue culture supernatants and serum samples.

Human A549 cells [6] = experiment: Apoptosis prevention assay (Annexin-5, C2 ceramide); assay type: cell-based; conditions: A549 cells pretreated 30 min, test peptide 10 micrograms per ml
Description: Human A549 cells (carcinomic human alveolar basal epithelial cells) were utilized in the experiments employing the Annexin-5 apoptosis assay. Annexin-5 is a member of a highly conserved protein family that binds acidic phospholipids in a calcium-dependent manner. […] Phosphatidylserine is translocated from the inner side of the plasma membrane to the outer layer when cells undergo death by apoptosis or cell necrosis and serves as a signal by which cell destined for death are recognized by phagocytes. A549 cells were pretreated for 30 min with test peptide—10 micrograms per ml—followed by the exposure to C2 ceramide. Ceramide mediates cell apoptosis through the activation of the mitogen activating protein kinase (MAPK) and the stress activated kinase (JNK/SAPK). C2 ceramide is a synthetic, membrane soluble analog of ceramide.

[7] = test system: Human Peripheral Blood Mononuclear Cells (PBMC); experiment: B cell proliferation assay (SAC plus Interleukin-2, 3H-thymidine); assay type: cell-based; conditions: test peptide 10 micrograms per ml
Protocol: as §1, with “The B” for “The T”, “the B” for “the T”, “mitogen Staphylococcus aureus Cowans I (SAC) plus Interleukin-2,” for “mitogen phytohemagglutinin (PHA),”, “cell” for “cell proliferating”, “of B” for “of T”

[8] = Cytotoxicity testing (CellTiter 96) in MRC-5 cells; assay type: cell-based; conditions: human, MRC-5 cells (human embryonal lung fibroblasts), 6 days incubation, read-out: % Cell viability
Description: (§2) Ganciclovir was used as positive control.

Human A549 cells [9] = experiment: Propidium iodide cell cycle assay; assay type: cell-based; conditions: 24 hours, test peptide 10 micrograms per ml, FACS
Description: Human A549 cells (carcinomic human alveolar basal epithelial cells) were utilized in the experiments employing the Propidium iodide cell cycle assay. The eukaryotic cell cycle is a series of events that take place in a cell leading to its replication. The regulation of the cell cycle involves steps crucial to the cell, including detecting and repairing genetic damage, and provision of various checks to prevent uncontrolled cell division. The molecular events that control the cell cycle are ordered and directional; that is, each process occurs in a sequential fashion. The cell cycle consists of four distinct phases: G1 phase, S phase, G2 phase (collectively known as interphase) and M phase. M phase is itself composed of two tightly coupled processes: mitosis, in which the cell's chromosomes are divided between the two daughter cells, and cytokinesis, in which the cell's cytoplasm divides forming distinct cells. Activation of each phase is dependent on the proper progression and completion of the previous one. Cells that have temporarily or reversibly stopped dividing are said to have entered a state of quiescence called Go phase. The relatively brief M phase consists of nuclear division and cytoplasmic division. The first phase within interphase, from the end of the previous M phase till the beginning of DNA synthesis is called G1 (G indicating gap or growth). During this phase the biosynthetic activities of the cell resume at a high rate. This phase is marked by synthesis of various enzymes that are required in S phase, mainly those needed for DNA replication. The ensuing S phase starts when DNA synthesis commences; when it is complete, all of the chromosomes have been replicated. The cell then enters the G2 phase, which lasts until the cell enters mitosis. Significant protein synthesis occurs during this phase, mainly involving the production of microtubules, which are required during the process of mitosis. […]
Propidium iodide is an intercalating agent and a fluorescent molecule that can be used to stain DNA. […] After incubation for 40 min at 37° C., cells were analyzed in the FACS.

[10] = Cell viability (dye uptake) in the HBV assay; assay type: cell-based; conditions: human, HepG2-2.2.15 cells, test peptide 10 micrograms per ml
HCMV strain AD169 = experiment: HCMV plaque reduction assay in MRC-5 cells; assay type: cell-based; conditions: HCMV AD169 in MRC-5 cells; peptide 10 micrograms per ml; 7-10 days
Description: as §2

[11] = test system: Primary Human endothelial cells (HUVEC); experiment: Endothelial cell migration assay; assay type: cell-based; conditions: 22 hours, test peptide 10 micrograms per ml
Streptococcus pneumoniae = Streptococcus pneumoniae assay; assay type: cell-based; conditions: Streptococcus pneumoniae growth; peptide 10 micrograms per ml; read visually
[12] = Cell viability / cytotoxicity (MTS) in the HIV-1 assay; conditions: human, CEM-SS cells
HUVEC = experiment: Endothelial tube formation assay; assay type: cell-based, Human; conditions: 20 hours, test peptide 10 micrograms per ml
Description: Positive control was vehicle only.

Cc1cn([C@H]2C[C@H](N=[N+]=[N-])[C@@H](CO)O2)c(=O)[nH]c1=O [AZT, reference compound]
% Cell viability (CEM-SS cells): 97%

CC(C)[C@H](NC(=O)[C@H](CC(=O)O)NC(=O)[C@H](CCCCN)NC(=O)[C@@H](N)CCCN=C(N)N)C(=O)N[C@@H](Cc1ccc(O)cc1)C(=O)O [Thymopentin, Arg-Lys-Asp-Val-Tyr-OH] (H-RKDVY-OH)
% CPE reduction in HIV-1 infected CEM-SS cells (HIV-1IIIB): 0.0%
% of PHA induced control [1]: 89.1%
% inhibition (Pseudomonas aeruginosa): 0.0%
% of induction (Human A549 cells [2]): 0.6%
% of LPS induction [3]: 108.9%
% inhibition of HBV replication in HEP G2 cells [4]: 6.2%
% inhibition (MRSA): 0.0%
IFNγ spleen cells; TH1 response (% of control) [5]: 62.0 % of control
IL-2 spleen cells (% of control) [5]: 122.2 % of control
IL-4 spleen cells; TH2 response (% of control) [5]: 170.6 % of control
IL-5 spleen cells; TH2 response (% of control) [5]: 73.8 % of control
TNF-a spleen cells; TH1 response (% of control) [5]: 109.6 % of control
% prevention of ceramide induced apoptosis (Human A549 cells [6]): 0.0%
% of SAC/IL2 induced control [7]: 94.4%
viability at 144 h [8]: 100%
Cell cycle analysis G0/G1 (Human A549 cells [9]): 54.6
Cell cycle analysis G2/M (Human A549 cells [9]): 10.7
Cell cycle analysis S (Human A549 cells [9]): 34.8
viability at 144 h, 10 micrograms per ml [10]: 100%
% plaque reduction (HCMV strain AD169): 1.4%
% inhibition of migration [11]: 7%
% inhibition (Streptococcus pneumoniae): 0.0%
viability at 10 micrograms per ml [12]: 100%
% inhibition of tube formation (HUVEC): 31%
